Test results reported in paper PMC6278073 (BMC Pharmacology & Toxicology, 2018).

Legend:
in vivo [1] = experiment: in vivo
Description: PK studies in animals were approved by the Institutional Animal Care and Use Committee (IACUC) of the institution performing the study. […] Twenty-four animals were used for each route of administration and both the genders were randomly included (n = 3 mice per time point). The intravenous dose was administered via tail vein injection at an injection volume of 5 ml/kg, and the oral dose was given via gavage at a dose volume of 10 ml/kg. […] Mice were sacrificed with carbon dioxide asphyxiation following bleeds. Plasma was prepared and stored at -80 °C until bioanalysis.
(§1) Sample preparation and bioanalysis was performed at the University of Cincinnati. For extraction, 50 μl of plasma samples were transferred to glass tubes. […] The extraction solvent was separated by centrifugation. […] Collected fractions were evaporated using centrifugal evaporator.
(§2) Analysis of extracted samples was performed by an LC-MS/MS method. […] The column was Synergi™ 4 μm Polar-RP 50 × 2.00 mm (Phenomenex) run at a flow rate of 400 μl/min with an injection volume of 5 μl (partial loop). […] The analysis was performed using a Thermo Scientific LTQ-FT™ mass spectrometer operated in positive-ion electrospray mode.
(§3) Pharmacokinetic analysis was performed on either mean plasma concentration-time data (mouse) or on the individual plasma concentration-time data (prairie dog, guinea pig, and monkey) employing Phoenix® WinNonlin 6.4®. PK parameters such as maximum plasma concentration (Cmax), the time corresponding to Cmax (Tmax), terminal half-life (T1/2), the volume of distribution (Vd) and clearance (CL) were calculated by non-compartmental methods and presented as the arithmetic mean ± standard deviation (SD). The bioavailability (F) was estimated by dividing the mean dose-normalized area under the plasma concentration-time curve from time 0 extrapolated to infinity (AUCinf) upon oral dose by the mean dose-normalized AUCinf upon intravenous dose.

in vivo [2] = experiment: in vivo; remark: listed apart in the source
Description: (§4) Prairie dog PK studies were performed at Centers for Disease Control and Prevention (CDC, Atlanta). […] The animals were collected in Lubbock, TX. All animals are given full physical examination by a veterinarian prior to being shipped to CDC. […] For each blood sample collection, prairie dogs were anesthetized with 5% isoflurane gas and maintained with 1–3% isoflurane during sample collection through peripheral veins. Plasma was prepared and stored at -70 °C until bioanalysis.
as §1, §2, §3

in vivo [3] = conditions: male, Hartley, guinea pig, iv, 10 mg/kg
Description: Male Hartley guinea pigs (450–650 g) were procured from Charles River. Nine animals were used, three (n = 3) for each route of administration. The intravenous dose was given via jugular vein cannula, and the oral dose was given via gavage. […] Plasma was prepared and stored at -80 °C until bioanalysis.
as §1, §2, §3

in vivo [4] = experiment: in vivo; remark: listed apart in the source
Description: Six Animals (3.5 kg) were procured from Charles River, three (n = 3) for each route of administration. Animals were fasted overnight before dosing and at least 1 h following dose administration. The intravenous dose was given via a saphenous vein at an injection volume of 1 ml/kg, and oral dosing was performed via gavage at a dose volume of 5 ml/kg. […] Plasma was prepared and stored at-70 °C until bioanalysis.
as §1, §2, §3

[5] = prairie dogs
Description: as §4
The formulation used in previously reported PK studies have varied based on the animal model. […] For their intravenous PK study in dogs, Solutol® HS 15 was used instead of cremophor [13].

[6] = nilotinib, 7 mg twice-daily, 20 mg once-daily, 20 mg twice-daily for 7 days, prairie dogs
Description: as §4

plasma protein = conditions: nilotinib, all the preclinical species and humans; cited from earlier work
[7] = nilotinib, cited from earlier work
[8] = nilotinib; cited from earlier work
[9] = both, C57BL/6, mouse, in vivo, iv, 10 mg/kg
[10] = both, C57BL/6, mouse, in vivo, po, 10 mg/kg
[11] = male, dog, in vivo, iv, 10 mg/kg
[12] = male, dog, in vivo, po, 30 mg/kg
[13] = male, dog, in vivo, po, 10 mg/kg
[14] = male, dog, in vivo, po, 20 mg/kg
[15] = nilotinib, IV 10 mg/kg, prairie dogs, mean ± SD
[16] = cynomolgus monkey, in vivo, iv, 10 mg/kg
[17] = cynomolgus monkey, in vivo, po, 10 mg/kg

`Cc1ccc(NC(=O)c2ccc(CN3CCN(C)CC3)cc2)cc1Nc1nccc(-c2cccnc2)n1` [imatinib] gave an AUC(0-inf) (in vivo [1]; [9]) of 4520 ng·h/mL, an AUC(0-inf) (in vivo [1]; [10]) of 4850 ng·h/mL and a Tmax (in vivo [1]; [10]) of 1 h. The Cmax (in vivo [1]; [10]) was 1470 ng/mL, the bioavailability (in vivo [2]; male, dog, in vivo) was roughly 22% and the AUC(0-inf) (in vivo [2]; [11]) was 12600 ng·h/mL. For the same compound, the AUC(0-inf) (in vivo [2]; [12]) was 8090 ± 3010 ng·h/mL, the Cmax (in vivo [2]; [12]) was 1680 ± 834 ng/mL and the Tmax (in vivo [2]; [12]) was 3 ± 1.15 h.
`Cc1cn(-c2cc(NC(=O)c3ccc(C)c(Nc4nccc(-c5cccnc5)n4)c3)cc(C(F)(F)F)c2)cn1` [nilotinib] gave an AUC(0-inf) (in vivo [1]; [9]) of 76300 ng·h/mL, an MRT (in vivo [1]; [9]) of 2.21 h and a Vd (in vivo [1]; [9]) of 0.29 L/kg. The clearance (in vivo [1]; [9]) was 2.19 mL/min/kg, the half-life (in vivo [1]; [9]) was 1.81 h and the AUC(0-inf) (in vivo [1]; [10]) was 38400 ng·h/mL. It also gave a Tmax (in vivo [1]; [10]) of 0.5 h, a half-life (in vivo [1]; [10]) of 2.94 h and a bioavailability (in vivo [1]; both, C57BL/6, mouse, in vivo, po, 10 mg/kg, Bioavailability, nilotinib, oral 10 mg/kg in NMP/PEG 300 vs IV 10 mg/kg, C57BL/6 mice) of 50%. For the same compound, the Cmax (in vivo [1]; both, C57BL/6, mouse, in vivo, po, 10 mg/kg, nilotinib, oral 10 mg/kg in NMP/PEG 300, C57BL/6 mice) was 18000 ng/mL, the Cmax (in vivo [1]; both, C57BL/6, mouse, in vivo, po, 10 mg/kg, nilotinib, oral 10 mg/kg, C57BL/6 mice) was roughly 18000 ng/mL and the “Time to Cmax after dosing” value (in vivo [1]; nilotinib, oral 10 mg/kg, C57BL/6 mice) was 30 min. The bioavailability (in vivo [2]; male, dog, in vivo, nilotinib, oral 20 mg/kg in NMP/PEG 300 vs IV 10 mg/kg, prairie dogs) was roughly 24%, the AUC(0-inf) (in vivo [2]; [11]) was 57600 ng·h/mL and the MRT (in vivo [2]; [11]) was 6.7 ± 2.9 h. It also gave a Vd (in vivo [2]; [11]) of 1.16 ± 0.326 L/kg, a clearance (in vivo [2]; [11]) of 3.17 mL/min/kg and a half-life (in vivo [2]; male, dog, in vivo, iv, 10 mg/kg, T1/2, nilotinib, IV 10 mg/kg, prairie dogs, mean ± SD) of 6.5 h. The AUC(0-inf) (in vivo [2]; [13]) was 9330 ± 3630 ng·h/mL, the Cmax (in vivo [2]; [13]) was 951 ± 255 ng/mL and the Tmax (in vivo [2]; [13]) was 5.6 ± 2.19 h. It also gave a half-life (in vivo [2]; male, dog, in vivo, po, 10 mg/kg, Apparent T1/2, nilotinib, oral 10 mg/kg in Avicel/HPMC suspension, prairie dogs, mean ± SD) of 3.5 ± 0.6 h, a bioavailability (in vivo [2]; male, dog, in vivo, po, 10 mg/kg, nilotinib, oral 10 mg/kg in Avicel/HPMC suspension vs IV 10 mg/kg, prairie dogs) of 16% and an AUC(0-inf) (in vivo [2]; [14]) of 28000 ng·h/mL. For the same compound, the Cmax (in vivo [2]; [14]) was 1670 ± 315 ng/mL, the Tmax (in vivo [2]; [14]) was 7.2 ± 1.79 h and the half-life (in vivo [2]; male, dog, in vivo, po, 20 mg/kg, Apparent T1/2, nilotinib, oral 20 mg/kg in NMP/PEG 300, prairie dogs, mean ± SD) was 7.5 h. For the same compound, the bioavailability (in vivo [2]; male, dog, in vivo, po, 20 mg/kg, nilotinib, oral 20 mg/kg in NMP/PEG 300 vs IV 10 mg/kg, prairie dogs) was 24%, the AUC(0-inf) (in vivo [2]; [15]) was 57,551 ± 15,508 ng.hr./ml and the CL (in vivo [2]; [15]) was 3.17 ± 1.28 mL/min/kg. The T1/2 (in vivo [2]; nilotinib, IV 10 mg/kg, prairie dogs, mean ± SD, 10 mg/kg) was 6.51 ± 2.97 h, the “Apparent T1/2” value (in vivo [2]; nilotinib, oral 20 mg/kg in NMP/PEG 300, prairie dogs, mean ± SD, 20 mg/kg) was 7.57 ± 2.01 h and the Vd (in vivo [3]) was 37.6 L/kg. It also gave a clearance (in vivo [3]) of 198 mL/min/kg, a half-life (in vivo [3]) of 2.1 h and an AUC(0-inf) (in vivo [4]; [16]) of 16100 ng·h/mL. The MRT (in vivo [4]; [16]) was 8.9 ± 1.1 h, the Vd (in vivo [4]; [16]) was 5.74 ± 1.78 L/kg and the clearance (in vivo [4]; [16]) was 10.7 mL/min/kg. The half-life (in vivo [4]; cynomolgus monkey, in vivo, iv, 10 mg/kg, T1/2, nilotinib, IV 10 mg/kg, Cynomolgus monkeys, mean ± SD) was 7.8 h, the AUC(0-inf) (in vivo [4]; [17]) was 2100 ± 468 ng·h/mL and the Cmax (in vivo [4]; [17]) was 410 ± 46 ng/mL. The Tmax (in vivo [4]; [17]) was 1.67 ± 0.58 h, the bioavailability (in vivo [4]; [17]) was 13% and the half-life (in vivo [4]; cynomolgus monkey, in vivo, po, 10 mg/kg, Apparent T1/2, nilotinib, oral 10 mg/kg in Avicel/HPMC, Cynomolgus monkeys, mean ± SD) was 5.2 h. For the same compound, the T1/2 (in vivo [4]; nilotinib, IV 10 mg/kg, Cynomolgus monkeys, mean ± SD) was 7.79 ± 0.71 h, the “Apparent T1/2” value (in vivo [4]; nilotinib, oral 10 mg/kg in Avicel/HPMC, Cynomolgus monkeys, mean ± SD) was 5.16 ± 0.52 h and the “Tolerability in multi-dose studies” value ([5]; nilotinib/NMP (20 mg/ml) in PEG 300 (1:10), oral, weight loss, severe diarrhea, elevated liver enzymes also in vehicle-treated animals, data not shown) was “not tolerated”. For the same compound, the “Tolerability in multiple dose PK studies” value ([5]; oral suspension of Avicel-RC 591 and HPMC) was “tolerable”, the “Deviation of predicted peak and trough levels on Days 1 and 7 from reported levels” value [6] was no more than 25% and the Protein binding (plasma protein) was “greater than 97%”. The “Solubility in an acidic environment” value ([7]; acidic environment) was “soluble”, the “Solubility at pH above 4.5” value ([7]; pH above 4.5) was “poorly soluble” and the Water solubility [7] was “low”. For the same compound, the “Biopharmaceutics Classification System class” value [8] was “class II/IV” and the Permeability [8] was “poor to moderate”.
